Data as given in patent US10245261B2, “Substituted indol-5-ol derivatives and their therapeutic applications” (NantBioScience, Inc., priority 2013, dated 2019).

Tests used:
Test in all cases: KinaseProfiler kinase assay
Format in all cases: biochemical
[1] = biological target: ALK(h) (Homo sapiens, UniProt Q9UM73)
Outline: (§1)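 Each enzyme was assayed radiometrically: 40 min room-temperature reaction with [γ-33P]ATP and 10 mM Mg acetate, acid-stopped, filtered, scintillation-counted.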

[2] = biological target: BTK(R28H)(h) (Homo sapiens, UniProt Q06187, R28H)
Outline: as §1

[3] = biological target: CK1δ(h) (Homo sapiens, UniProt P48730)
Outline: as §1

[4] = biological target: CaMKIIγ(h) (Homo sapiens, UniProt Q13555)
Outline: as §1

[5] = biological target: EphB2(h) (Homo sapiens, UniProt P29323)
Outline: as §1

[6] = biological target: Flt3(D835Y)(h) (Homo sapiens, UniProt P36888, D835Y)
Outline: as §1

[7] = biological target: Fms(Y969C)(h) (Homo sapiens, UniProt P07333, Y969C)
Outline: as §1

[8] = biological target: Fms(h) (Homo sapiens, UniProt P07333)
Outline: as §1

[9] = biological target: HIPK3(h) (Homo sapiens, UniProt Q9H422)
Outline: as §1

[10] = biological target: IRAK1(h) (Homo sapiens, UniProt P51617)
Outline: as §1

[11] = biological target: JNK1α1(h) (Homo sapiens, UniProt P45983)
Outline: as §1

[12] = biological target: Lyn(m) (Mus musculus, UniProt P25911)
Outline: as §1

[13] = biological target: MAPK1(h) (Homo sapiens, UniProt P27361)
Outline: as §1

[14] = biological target: MAPKAP-K3(h) (Homo sapiens, UniProt Q16644)
Outline: as §1

[15] = biological target: MKK4(m) (Mus musculus, UniProt P47809)
Outline: as §1

[16] = biological target: MSSK1(h) (Homo sapiens, UniProt Q9UPE1)
Outline: as §1

[17] = biological target: Met(Y1248H)(h) (Homo sapiens, UniProt P08581, Y1230H)
Outline: as §1

[18] = biological target: NEK3(h) (Homo sapiens, UniProt P51956)
Outline: as §1

[19] = biological target: NLK(h) (Homo sapiens, UniProt Q9UBE8)
Outline: as §1

[20] = biological target: PI3 Kinase (p110δ/p85α)(m) (Mus musculus, UniProt O35904)
Outline: as §1

[21] = biological target: PKBγ(h) (Homo sapiens, UniProt Q9Y243)
Outline: as §1

[22] = biological target: PKCβII(h) (Homo sapiens, UniProt P05771)
Outline: as §1

[23] = biological target: PKCη(h) (Homo sapiens, UniProt P24723)
Outline: as §1

[24] = biological target: Pim-1(h) (Homo sapiens, UniProt P11309)
Outline: as §1

[25] = biological target: Pim-2(h) (Homo sapiens, UniProt Q9P1W9)
Outline: as §1

[26] = biological target: SRPK1(h) (Homo sapiens, UniProt Q96SB4)
Outline: as §1

[27] = biological target: TAO1(h) (Homo sapiens, UniProt Q7L7X3)
Outline: as §1

[28] = biological target: Tie2(Y897S)(h) (Homo sapiens, UniProt Q02763, Y897S)
Outline: as §1

[29] = biological target: TrkB(h) (Homo sapiens, UniProt Q16620)
Outline: as §1

[30] = biological target: cKit(h) (Homo sapiens, UniProt P10721)
Outline: as §1

[31] = biological target: p70S6K(h) (Homo sapiens, UniProt P23443)
Outline: as §1

Sequence of MAPKAP-K3(h) (Q16644 whole entry): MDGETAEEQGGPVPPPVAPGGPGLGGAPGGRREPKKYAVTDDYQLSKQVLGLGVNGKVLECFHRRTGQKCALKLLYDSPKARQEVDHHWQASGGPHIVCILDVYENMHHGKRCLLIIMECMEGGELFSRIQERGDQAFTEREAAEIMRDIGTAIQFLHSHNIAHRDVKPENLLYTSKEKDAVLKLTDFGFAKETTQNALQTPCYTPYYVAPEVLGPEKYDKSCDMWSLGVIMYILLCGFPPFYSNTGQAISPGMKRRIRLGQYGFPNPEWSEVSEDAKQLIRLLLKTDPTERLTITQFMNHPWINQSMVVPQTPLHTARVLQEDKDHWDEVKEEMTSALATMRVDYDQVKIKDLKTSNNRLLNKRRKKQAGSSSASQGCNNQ
Sequence of EphB2(h) (P29323 19-1055): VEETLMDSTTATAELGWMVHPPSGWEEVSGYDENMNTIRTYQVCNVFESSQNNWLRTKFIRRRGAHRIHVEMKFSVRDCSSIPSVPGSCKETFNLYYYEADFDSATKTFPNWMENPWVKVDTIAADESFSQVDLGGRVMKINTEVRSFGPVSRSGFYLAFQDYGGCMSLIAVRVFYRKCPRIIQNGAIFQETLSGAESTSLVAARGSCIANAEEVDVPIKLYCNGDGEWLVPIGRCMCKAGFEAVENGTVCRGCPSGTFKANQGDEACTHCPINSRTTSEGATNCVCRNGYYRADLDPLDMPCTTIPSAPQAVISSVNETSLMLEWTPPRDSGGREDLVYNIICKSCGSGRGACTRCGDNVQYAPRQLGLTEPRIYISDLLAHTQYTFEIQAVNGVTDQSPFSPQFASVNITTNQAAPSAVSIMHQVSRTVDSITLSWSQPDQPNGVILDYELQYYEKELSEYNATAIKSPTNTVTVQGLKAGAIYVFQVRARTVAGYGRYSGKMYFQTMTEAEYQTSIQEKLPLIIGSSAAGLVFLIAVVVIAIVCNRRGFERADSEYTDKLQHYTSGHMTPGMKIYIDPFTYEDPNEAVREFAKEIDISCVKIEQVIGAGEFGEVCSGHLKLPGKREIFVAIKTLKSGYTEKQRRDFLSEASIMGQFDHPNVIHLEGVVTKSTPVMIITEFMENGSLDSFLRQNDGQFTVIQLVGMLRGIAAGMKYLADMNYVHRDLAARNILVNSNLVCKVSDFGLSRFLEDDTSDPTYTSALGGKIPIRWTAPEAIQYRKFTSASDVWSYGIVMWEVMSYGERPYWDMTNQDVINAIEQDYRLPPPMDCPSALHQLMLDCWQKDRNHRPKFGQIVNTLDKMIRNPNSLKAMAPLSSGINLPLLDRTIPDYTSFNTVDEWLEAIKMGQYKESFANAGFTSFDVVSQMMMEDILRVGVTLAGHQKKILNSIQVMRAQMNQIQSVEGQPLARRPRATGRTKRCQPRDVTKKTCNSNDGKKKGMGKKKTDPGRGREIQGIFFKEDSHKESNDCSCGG
Sequence of PKCβII(h) (P05771 1-673 isoform P05771-2): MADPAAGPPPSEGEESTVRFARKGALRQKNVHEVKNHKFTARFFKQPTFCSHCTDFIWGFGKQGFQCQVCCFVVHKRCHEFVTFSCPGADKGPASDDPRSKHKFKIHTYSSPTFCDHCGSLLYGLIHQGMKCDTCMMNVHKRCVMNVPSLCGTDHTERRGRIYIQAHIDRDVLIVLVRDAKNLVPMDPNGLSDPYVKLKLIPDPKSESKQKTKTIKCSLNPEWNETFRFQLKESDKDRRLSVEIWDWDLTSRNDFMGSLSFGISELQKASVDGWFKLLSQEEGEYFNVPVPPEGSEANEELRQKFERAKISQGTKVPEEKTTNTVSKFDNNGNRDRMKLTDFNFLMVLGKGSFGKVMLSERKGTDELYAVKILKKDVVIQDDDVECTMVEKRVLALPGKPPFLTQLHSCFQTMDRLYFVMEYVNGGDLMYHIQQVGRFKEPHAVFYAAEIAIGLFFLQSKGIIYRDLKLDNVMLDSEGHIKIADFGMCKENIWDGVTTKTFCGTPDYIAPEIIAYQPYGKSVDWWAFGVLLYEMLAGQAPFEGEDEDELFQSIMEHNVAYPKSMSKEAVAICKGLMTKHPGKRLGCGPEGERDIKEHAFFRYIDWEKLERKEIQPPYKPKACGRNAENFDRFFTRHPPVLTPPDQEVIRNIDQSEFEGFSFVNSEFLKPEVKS
Sequence of JNK1α1(h) (P45983 1-384 isoform P45983-2): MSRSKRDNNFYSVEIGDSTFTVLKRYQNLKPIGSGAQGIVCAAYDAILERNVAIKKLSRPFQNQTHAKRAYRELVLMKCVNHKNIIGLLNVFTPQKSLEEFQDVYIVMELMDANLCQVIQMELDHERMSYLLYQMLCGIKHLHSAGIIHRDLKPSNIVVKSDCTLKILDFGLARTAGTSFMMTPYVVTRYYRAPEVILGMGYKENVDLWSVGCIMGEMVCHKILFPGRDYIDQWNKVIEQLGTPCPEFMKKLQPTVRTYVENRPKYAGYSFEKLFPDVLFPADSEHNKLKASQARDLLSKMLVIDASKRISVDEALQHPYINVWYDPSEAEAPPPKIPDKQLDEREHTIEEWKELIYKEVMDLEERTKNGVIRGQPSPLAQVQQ
Sequence of Fms(Y969C)(h) (P07333 20-972 Y969C): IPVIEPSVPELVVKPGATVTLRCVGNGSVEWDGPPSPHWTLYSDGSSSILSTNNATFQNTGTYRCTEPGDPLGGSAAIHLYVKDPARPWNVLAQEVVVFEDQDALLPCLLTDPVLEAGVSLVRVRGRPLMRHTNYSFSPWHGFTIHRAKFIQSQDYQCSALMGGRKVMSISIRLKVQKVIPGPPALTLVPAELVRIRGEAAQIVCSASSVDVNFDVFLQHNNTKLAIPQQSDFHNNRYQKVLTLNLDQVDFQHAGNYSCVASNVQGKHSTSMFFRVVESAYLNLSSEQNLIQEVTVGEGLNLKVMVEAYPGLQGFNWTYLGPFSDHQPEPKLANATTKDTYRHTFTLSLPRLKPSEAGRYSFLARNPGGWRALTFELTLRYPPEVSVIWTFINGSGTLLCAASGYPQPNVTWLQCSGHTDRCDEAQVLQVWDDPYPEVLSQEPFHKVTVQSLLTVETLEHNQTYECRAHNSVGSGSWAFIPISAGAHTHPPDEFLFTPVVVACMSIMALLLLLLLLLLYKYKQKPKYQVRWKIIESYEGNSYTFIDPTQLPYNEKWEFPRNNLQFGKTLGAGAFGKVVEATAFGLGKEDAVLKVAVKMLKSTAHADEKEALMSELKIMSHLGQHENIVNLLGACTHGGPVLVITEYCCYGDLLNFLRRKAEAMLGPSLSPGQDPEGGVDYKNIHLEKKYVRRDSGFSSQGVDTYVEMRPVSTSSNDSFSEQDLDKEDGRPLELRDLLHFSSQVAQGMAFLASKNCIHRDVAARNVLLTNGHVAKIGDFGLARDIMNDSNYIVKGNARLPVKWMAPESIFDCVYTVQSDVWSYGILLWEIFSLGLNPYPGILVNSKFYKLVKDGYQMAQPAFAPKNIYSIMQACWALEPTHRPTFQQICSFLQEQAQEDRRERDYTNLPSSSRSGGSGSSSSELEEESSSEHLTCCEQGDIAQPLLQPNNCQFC
Sequence of Pim-2(h) (Q9P1W9 whole entry): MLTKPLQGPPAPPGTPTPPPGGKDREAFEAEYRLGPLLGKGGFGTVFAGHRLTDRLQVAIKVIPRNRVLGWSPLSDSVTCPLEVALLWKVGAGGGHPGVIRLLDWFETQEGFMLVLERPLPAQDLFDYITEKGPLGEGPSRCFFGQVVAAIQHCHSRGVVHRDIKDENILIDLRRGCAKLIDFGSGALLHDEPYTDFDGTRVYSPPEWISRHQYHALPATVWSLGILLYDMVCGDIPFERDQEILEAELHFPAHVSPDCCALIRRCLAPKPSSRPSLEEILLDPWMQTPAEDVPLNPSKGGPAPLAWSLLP
Sequence of MSSK1(h) (Q9UPE1 whole entry): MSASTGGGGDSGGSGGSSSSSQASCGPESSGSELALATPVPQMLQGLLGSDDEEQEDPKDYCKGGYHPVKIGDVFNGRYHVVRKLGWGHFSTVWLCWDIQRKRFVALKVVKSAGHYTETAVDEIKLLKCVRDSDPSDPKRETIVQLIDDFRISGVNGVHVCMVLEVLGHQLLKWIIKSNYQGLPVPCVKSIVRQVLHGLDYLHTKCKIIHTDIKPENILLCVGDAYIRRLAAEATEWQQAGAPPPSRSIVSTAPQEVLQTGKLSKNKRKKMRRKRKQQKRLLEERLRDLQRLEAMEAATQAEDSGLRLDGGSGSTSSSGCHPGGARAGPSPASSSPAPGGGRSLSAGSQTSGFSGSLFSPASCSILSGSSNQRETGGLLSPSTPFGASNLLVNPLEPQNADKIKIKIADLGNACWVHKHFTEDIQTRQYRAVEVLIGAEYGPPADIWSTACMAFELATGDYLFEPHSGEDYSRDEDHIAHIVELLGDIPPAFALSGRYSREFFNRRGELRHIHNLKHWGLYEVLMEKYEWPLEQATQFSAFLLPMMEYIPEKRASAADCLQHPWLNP
Sequence of SRPK1(h) (Q96SB4 whole entry): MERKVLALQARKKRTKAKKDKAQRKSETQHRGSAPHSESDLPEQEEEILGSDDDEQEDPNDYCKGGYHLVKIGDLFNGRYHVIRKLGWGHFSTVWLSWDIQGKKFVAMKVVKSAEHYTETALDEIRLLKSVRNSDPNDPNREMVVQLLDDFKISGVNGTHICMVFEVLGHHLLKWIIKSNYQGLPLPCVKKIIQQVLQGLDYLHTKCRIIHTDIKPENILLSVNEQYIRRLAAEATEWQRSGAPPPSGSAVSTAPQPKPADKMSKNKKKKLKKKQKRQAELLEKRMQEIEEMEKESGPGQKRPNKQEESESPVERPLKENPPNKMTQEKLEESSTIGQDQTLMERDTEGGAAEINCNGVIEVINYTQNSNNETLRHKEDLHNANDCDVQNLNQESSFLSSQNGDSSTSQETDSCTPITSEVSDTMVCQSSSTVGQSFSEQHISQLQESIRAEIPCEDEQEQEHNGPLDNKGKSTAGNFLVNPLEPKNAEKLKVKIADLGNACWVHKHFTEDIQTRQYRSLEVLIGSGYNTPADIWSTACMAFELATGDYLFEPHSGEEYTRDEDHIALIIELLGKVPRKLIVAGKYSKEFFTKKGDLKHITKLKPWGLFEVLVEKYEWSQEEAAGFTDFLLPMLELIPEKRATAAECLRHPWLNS
Sequence of Fms(h) (P07333 20-972): as the sequence (P07333 20-972 Y969C) above, with C950Y counted along it

Compound | inhibition at 0.1 µM [1] [%] | inhibition at 0.1 µM [2] [%] | inhibition at 0.1 µM [3] [%] | inhibition at 0.1 µM [4] [%] | inhibition at 0.1 µM [5] [%] | inhibition at 0.1 µM [6] [%] | inhibition at 0.1 µM [7] [%] | inhibition at 0.1 µM [8] [%] | inhibition at 0.1 µM [9] [%] | inhibition at 0.1 µM [10] [%] | inhibition at 0.1 µM [11] [%] | inhibition at 0.1 µM [12] [%] | inhibition at 0.1 µM [13] [%] | inhibition at 0.1 µM [14] [%] | inhibition at 0.1 µM [15] [%] | inhibition at 0.1 µM [16] [%] | inhibition at 0.1 µM [17] [%] | inhibition at 0.1 µM [18] [%] | inhibition at 0.1 µM [19] [%] | inhibition at 0.1 µM [20] [%] | also measured
Cc1cc2c(F)c(Oc3nc(Nc4cc(C5CC5)[nH]n4)cc(N4CCN(C)CC4)n3)ccc2[nH]1 [Compound 10] | 87 | 10 | -21 | -8 | 47 | 99 | 67 | 91 | -1 | -2 | -7 | 98 | -4 | 4 | -2 | 22 | 69 | 18 | -12 | -19 | inhibition at 0.1 µM [21]: -10%; inhibition at 0.1 µM [22]: 3%; inhibition at 0.1 µM [23]: -16%; inhibition at 0.1 µM [24]: -21%; inhibition at 0.1 µM [25]: -25%; inhibition at 0.1 µM [26]: -11%; inhibition at 0.1 µM [27]: 24%; inhibition at 0.1 µM [28]: 91%; inhibition at 0.1 µM [29]: 103%; inhibition at 0.1 µM [30]: 0%; inhibition at 0.1 µM [31]: -10%
Cc1cc2c(F)c(Oc3nc(Nc4cc(C5CC5)[nH]n4)cc(N4CCNCC4)n3)ccc2[nH]1 [Compound 11, N-(5-cyclopropyl-1H-pyrazol-3-yl)-2-((4-fluoro-2-methyl-1H-indol-5-yl)oxy)-6-(piperazin-1-yl)pyrimidin-4-amine] | 86 | -7 | -3 | 22 | 76 | 101 | 73 | 95 | -3 | -9 | 11 | 101 | -10 | -15 | -28 | 0 | 91 | 16 | -8 | 6 | inhibition at 0.1 µM [21]: -18%; inhibition at 0.1 µM [22]: -3%; inhibition at 0.1 µM [23]: -7%; inhibition at 0.1 µM [24]: -9%; inhibition at 0.1 µM [25]: 17%; inhibition at 0.1 µM [26]: -14%; inhibition at 0.1 µM [27]: 26%; inhibition at 0.1 µM [28]: 93%; inhibition at 0.1 µM [29]: 100%; inhibition at 0.1 µM [30]: 24%; inhibition at 0.1 µM [31]: 2%
